According to patent publication US12156880B2, “Heterocyclic RIP1 kinase inhibitors” (Rigel Pharmaceuticals, Inc., priority 2021, dated 2024):
pIC50: −log10 of the molar value.

Tests used:
RIPK1 = target: T1, RIPK1 (Homo sapiens, UniProt Q13546); experiment: RIPK1 ADP-Glo biochemical kinase assay; conditions: read-out: RIPK1 ADP-Glo Kinase (IC50)
T1 sequence (Q13546 1-671): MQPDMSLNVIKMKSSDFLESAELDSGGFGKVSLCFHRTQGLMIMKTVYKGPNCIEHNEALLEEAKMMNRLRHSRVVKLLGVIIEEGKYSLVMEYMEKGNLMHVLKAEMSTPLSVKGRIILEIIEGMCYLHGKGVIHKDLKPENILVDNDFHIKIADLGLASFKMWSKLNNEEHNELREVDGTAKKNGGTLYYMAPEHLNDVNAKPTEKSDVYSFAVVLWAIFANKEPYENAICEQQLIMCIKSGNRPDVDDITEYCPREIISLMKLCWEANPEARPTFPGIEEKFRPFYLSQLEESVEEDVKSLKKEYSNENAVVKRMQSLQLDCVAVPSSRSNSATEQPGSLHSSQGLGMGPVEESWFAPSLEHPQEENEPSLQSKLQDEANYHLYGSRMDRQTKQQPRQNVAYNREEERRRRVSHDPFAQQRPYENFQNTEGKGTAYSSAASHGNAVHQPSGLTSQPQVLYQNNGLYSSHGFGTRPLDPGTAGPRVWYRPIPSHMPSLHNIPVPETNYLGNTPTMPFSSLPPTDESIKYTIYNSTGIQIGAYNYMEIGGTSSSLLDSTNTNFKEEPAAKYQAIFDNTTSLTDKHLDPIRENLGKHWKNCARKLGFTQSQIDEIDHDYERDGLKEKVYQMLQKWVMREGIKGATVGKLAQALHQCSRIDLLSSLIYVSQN
Summary of the method: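 RIPK1 at 31 ng/well in Tris pH 7.4 buffer with MgCl2, BSA, DTT and MnCl2, reacted with compounds (duplicate) for 30 min at 30 °C. ADP formed detected by ADP-Glo: 40 min stop/depletion, then 30 min detection reagent at room temperature; luminescence read.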

L929 cells = experiment: L929 cell necroptosis assay (TNFa + zVAD, CellTiter-Glo recovery); assay type: cell-based, murine; conditions: Mus musculus, L929, 18 h, TNFa 2 ng/mL + zVAD-fmk, read-out: L929-CTG-recovery, L929, TNFa + zVAD (IC50)
Summary of the method: (§1)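 Human U937 (50K/well, 60 uM zVAD-fmk medium, plated same day) or murine L929 (10K/well, plated 18 h, then 40 uM zVAD-fmk medium) were grown in RPMI with 10% FBS. Both were pretreated with compound for 1 h at 37 °C before TNFa at 2 ng/mL final. Viability was read by CellTiter-Glo luminescence after 18 h.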

U937 cells = experiment: U937 cell necroptosis assay (TNFa + zVAD, CellTiter-Glo recovery); assay type: cell-based; conditions: Homo sapiens, U-937, 18 h, TNFa 2 ng/mL + zVAD-fmk, read-out: U937 Zvad TNF CTG Recovery, U937, TNFa + zVAD (IC50)
Summary of the method: as §1

Compound	pIC50 (RIPK1)	pIC50 (L929 cells)	pIC50 (U937 cells)
Cc1ccc(Oc2ccnc(C(=O)N[C@H]3COc4ccc(C#CC5(O)COC5)cc4N(C)C3=O)c2)c(C)n1 [I-79, (S)-4-((2,6-dimethylpyridin-3-yl)oxy)-N-(7-((3-hydroxyoxetan-3-yl)ethynyl)-5-methyl-4-oxo-2,3,4,5-tetrahydrobenzo[b][1,4]oxazepin-3-yl)picolinamide]	7.17	5.36	6.74
Cc1ncccc1Oc1ccnc(C(=O)N[C@H]2COc3ccc(C#CC4(O)CCC4)cc3N(C)C2=O)c1 [I-82, (S)—N-(7-((1-hydroxycyclobutyl)ethynyl)-5-methyl-4-oxo-2,3,4,5-tetrahydrobenzo[b][1,4]oxazepin-3-yl)-4-((2-methylpyridin-3-yl)oxy)picolinamide]	7.53	5.35	7.52
CN1C(=O)[C@@H](NC(=O)c2cc(Oc3cccnc3F)ccn2)COc2ccc(C#CC3(O)CCC3)cc21 [I-83, (S)-4-((2-fluoropyridin-3-yl)oxy)-N-(7-((1-hydroxycyclobutyl)ethynyl)-5-methyl-4-oxo-2,3,4,5-tetrahydrobenzo[b][1,4]oxazepin-3-yl)picolinamide]	7.72	6.66	8.85
CN1C(=O)[C@@H](NC(=O)c2cc(Cc3cccc(F)n3)ccn2)COc2ccc(C#CC3COC3)cc21 [I-84, (S)-4-((6-fluoropyridin-2-yl)methyl)-N-(5-methyl-7-(oxetan-3-ylethynyl)-4-oxo-2,3,4,5-tetrahydrobenzo[b][1,4]oxazepin-3-yl)picolinamide]	7.71	6.11	8.03
Cc1nc(Cc2ccnc(C(=O)N[C@H]3COc4ccc(C#CC5COC5)cc4N(C)C3=O)c2)cs1 [I-85, (S)—N-(5-methyl-7-(oxetan-3-ylethynyl)-4-oxo-2,3,4,5-tetrahydrobenzo[b][1,4]oxazepin-3-yl)-4-((2-methylthiazol-4-yl)methyl)picolinamide]	7.69	6.60	7.80
CN1C(=O)[C@@H](NC(=O)c2cc(Oc3cccnc3C(F)(F)F)ccn2)COc2ccc(C#CC(C)(C)O)cc21 [I-87, (S)—N-(7-(3-hydroxy-3-methylbut-1-yn-1-yl)-5-methyl-4-oxo-2,3,4,5-tetrahydrobenzo[b][1,4]oxazepin-3-yl)-4-((2-(trifluoromethyl)pyridin-3-yl)oxy)picolinamide]	7.29	4.95	6.27
CN1C(=O)[C@@H](NC(=O)c2cc(Oc3cccnc3C(F)(F)F)ccn2)COc2ccc(C#CC3(O)COC3)cc21 [I-88, (S)—N-(7-((3-hydroxyoxetan-3-yl)ethynyl)-5-methyl-4-oxo-2,3,4,5-tetrahydrobenzo[b][1,4]oxazepin-3-yl)-4-((2-(trifluoromethyl)pyridin-3-yl)oxy)picolinamide]	7.25	4.98	6.88
Cc1nc(Cc2ccnc(C(=O)N[C@H]3COc4ccc(C#CC5CCOCC5)cc4N(C)C3=O)c2)cs1 [I-90, (S)—N-(5-methyl-4-oxo-7-((tetrahydro-2H-pyran-4-yl)ethynyl)-2,3,4,5-tetrahydrobenzo[b][1,4]oxazepin-3-yl)-4-((2-methylthiazol-4-yl)methyl)picolinamide]	7.70	7.69	8.72
CN1C(=O)[C@@H](NC(=O)c2cc(Oc3cccnc3C#N)ccn2)COc2ccc(C#CC(C)(C)O)cc21 [I-91, (S)-4-((2-cyanopyridin-3-yl)oxy)-N-(7-(3-hydroxy-3-methylbut-1-yn-1-yl)-5-methyl-4-oxo-2,3,4,5-tetrahydrobenzo[b][1,4]oxazepin-3-yl)picolinamide]	7.00	5.02	6.54
CN1C(=O)[C@@H](NC(=O)c2cc(Oc3cccnc3C#N)ccn2)COc2ccc(C#CC3(O)COC3)cc21 [I-92, (S)-4-((2-cyanopyridin-3-yl)oxy)-N-(7-((3-hydroxyoxetan-3-yl)ethynyl)-5-methyl-4-oxo-2,3,4,5-tetrahydrobenzo[b][1,4]oxazepin-3-yl)picolinamide]	7.68	5.10	6.80
CN1C(=O)[C@@H](NC(=O)c2cc(Cc3cccc(C#N)n3)ccn2)COc2ccc(C#CC(C)(C)O)cc21 [I-93, (S)-4-((6-cyanopyridin-2-yl)methyl)-N-(7-(3-hydroxy-3-methylbut-1-yn-1-yl)-5-methyl-4-oxo-2,3,4,5-tetrahydrobenzo[b][1,4]oxazepin-3-yl)picolinamide]	7.52	5.25	7.28
CN1C(=O)[C@@H](NC(=O)c2cc(Cc3cccc(C#N)n3)ccn2)COc2ccc(C#CC3(O)COC3)cc21 [I-94, (S)-4-((6-cyanopyridin-2-yl)methyl)-N-(7-((3-hydroxyoxetan-3-yl)ethynyl)-5-methyl-4-oxo-2,3,4,5-tetrahydrobenzo[b][1,4]oxazepin-3-yl)picolinamide]	7.74	5.42	7.63
CN1C(=O)[C@@H](NC(=O)c2cc(Oc3cccnc3F)ccn2)COc2ccc(C#CC(C)(C)C)cc21 [I-95, (S)—N-(7-(3,3-dimethylbut-1-yn-1-yl)-5-methyl-4-oxo-2,3,4,5-tetrahydrobenzo[b][1,4]oxazepin-3-yl)-4-((2-fluoropyridin-3-yl)oxy)picolinamide]	7.20	6.45	8.49
Cc1nc(Cc2ccnc(C(=O)N[C@H]3COc4ccc(C#CC(C)(C)C)cc4N(C)C3=O)c2)cs1 [I-96, (S)—N-(7-(3,3-dimethylbut-1-yn-1-yl)-5-methyl-4-oxo-2,3,4,5-tetrahydrobenzo[b][1,4]oxazepin-3-yl)-4-((2-methylthiazol-4-yl)methyl)picolinamide]	6.40	6.62	7.07
CN1C(=O)[C@@H](NC(=O)c2cc(Cc3cccc(F)n3)ccn2)COc2ccc(C#CC(C)(C)C)cc21 [I-97, (S)—N-(7-(3,3-dimethylbut-1-yn-1-yl)-5-methyl-4-oxo-2,3,4,5-tetrahydrobenzo[b][1,4]oxazepin-3-yl)-4-((6-fluoropyridin-2-yl)methyl)picolinamide]	7.08	6.41	7.79
CCc1nc(Cc2ccnc(C(=O)N[C@H]3COc4ccc(C#CC(C)(C)O)cc4N(C)C3=O)c2)cs1 [I-98, (S)-4-((2-ethylthiazol-4-yl)methyl)-N-(7-(3-hydroxy-3-methylbut-1-yn-1-yl)-5-methyl-4-oxo-2,3,4,5-tetrahydrobenzo[b][1,4]oxazepin-3-yl)picolinamide]	7.62	6.95	7.81
CCc1nc(Cc2ccnc(C(=O)N[C@H]3COc4ccc(C#CC5(O)COC5)cc4N(C)C3=O)c2)cs1 [I-99, (S)-4-((2-ethylthiazol-4-yl)methyl)-N-(7-((3-hydroxyoxetan-3-yl)ethynyl)-5-methyl-4-oxo-2,3,4,5-tetrahydrobenzo[b][1,4]oxazepin-3-yl)picolinamide]	7.57	6.65	7.57
CN1C(=O)[C@@H](NC(=O)c2cc(Oc3cncc(F)c3)ccn2)COc2ccc(C#CC3(O)CCC3)cc21 [I-100, (S)-4-((5-fluoropyridin-3-yl)oxy)-N-(7-((1-hydroxycyclobutyl)ethynyl)-5-methyl-4-oxo-2,3,4,5-tetrahydrobenzo[b][1,4]oxazepin-3-yl)picolinamide]	7.55	5.96	8.39
CN1C(=O)[C@@H](NC(=O)c2cc(Oc3cncc(F)c3)ccn2)COc2ccc(C#CC(C)(C)C)cc21 [I-101, (S)—N-(7-(3,3-dimethylbut-1-yn-1-yl)-5-methyl-4-oxo-2,3,4,5-tetrahydrobenzo[b][1,4]oxazepin-3-yl)-4-((5-fluoropyridin-3-yl)oxy)picolinamide]	7.26	5.80	8.04
CN1C(=O)[C@@H](NC(=O)c2cc(Oc3cccnc3)ccn2)COc2ccc(C#CC(C)(C)C)cc21 [I-102, (S)—N-(7-(3,3-dimethylbut-1-yn-1-yl)-5-methyl-4-oxo-2,3,4,5-tetrahydrobenzo[b][1,4]oxazepin-3-yl)-4-(pyridin-3-yloxy)picolinamide]	7.53	6.19	8.12
